System: patients with cGVHD
Assay: Example 1: Global Severity Rating and participant self-reported symptom activity
Type: in vivo, human
Description: Maximal Improvement from Baseline in Global Severity Rating (GSR) by Clinician-reported cGVHD Assessment. The GSR assessment was performed by asking the participants to rate their disease severity of cGVHD symptoms on a 0 to 10-point numeric rating scale, where score 0 indicated ‘not at all severe cGVHD symptoms’ and score 10 indicated ‘most severe cGVHD symptoms possible’. The response was defined using the scores from 9 organs: skin, eyes, mouth, esophagus, upper gastrointestinal (GI) track, lower GI tract, liver, lungs, and joints and fascia plus GSR. End of treatment (EOT) visit was performed within 3 days after the participant's last dose of study drug. Baseline value was defined as valid and last non-missing value obtained within 28 days prior to participant receiving first study medication. […] Analysis was performed on mITT population.
Number of Participants With Maximal Improvement From Baseline in Symptom Activity by cGVHD Activity Assessment Participant Self-Report. cGVHD symptom severity was self-reported by participants. Participants were asked to rate their disease symptom severity over the last week on the following questions: skin itching at its worst, moth dryness at its worst, mouth pain at its worst, mouth sensitivity at its worst, main compliant on eyes, symptom severity on eyes. The severity rating was done on a 0 to 10-point numeric rating scare, where score 0 indicated ‘not at all severe cGVHD symptoms’ and score 10 indicated ‘most severe cGVHD symptoms possible’. EOT visit was performed within 3 days after the participant's last dose of study drug. Baseline value was defined as valid and last non-missing value obtained within 28 days prior to participant receiving first study medication. […] Analysis was performed on mITT population.

## CC(C)NC(=O)COc1cccc(-c2nc(Nc3ccc4[nH]ncc4c3)c3ccccc3n2)c1 [Belumosudil, 2-{3-[4-(1H-indazol-5-ylamino)-2-quinazolinyl]phenoxy}-N-(propan-2-yl) acetamide]
Cohort 1 200 mg QD
  Maximal improvement from baseline in GSR of 0: 5 (29%) participants
  Maximal improvement from baseline in GSR of 1: 0 (0%) participants
  Maximal improvement from baseline in GSR of 3: 0 (0%) participants
  Maximal improvement from baseline in GSR of −1: 1 (6%) participants
  Maximal improvement from baseline in GSR of −2: 2 (12%) participants
  Maximal improvement from baseline in GSR of −4: 2 (12%) participants
  Maximal improvement from baseline in GSR of −5: 2 (12%) participants
  Maximal improvement from baseline in GSR of −6: 0 (0%) participants
  Maximal improvement from baseline in GSR of −7: 0 (0%) participants
  Maximal improvement in self-reported symptom activity of 0: 1 participants
  Maximal improvement in self-reported symptom activity of 1: 0 participants
  Maximal improvement in self-reported symptom activity of 2: 0 participants
  Maximal improvement in self-reported symptom activity of 4: 1 participants
  Maximal improvement in self-reported symptom activity of −1: 2 participants
  Maximal improvement in self-reported symptom activity of −2: 2 participants
  Maximal improvement in self-reported symptom activity of −3: 2 participants
  Maximal improvement in self-reported symptom activity of −4: 2 participants
  Maximal improvement in self-reported symptom activity of −5: 2 participants
  Maximal improvement in self-reported symptom activity of −6: 0 participants
  Maximal improvement in self-reported symptom activity of −7: 3 participants
  Maximal improvement in self-reported symptom activity of −8: 0 participants
Cohort 2 200 mg BID
  Maximal improvement from baseline in GSR of 0: 4 (25%) participants
  Maximal improvement from baseline in GSR of 1: 1 (6%) participants
  Maximal improvement from baseline in GSR of 3: 1 (6%) participants
  Maximal improvement from baseline in GSR of −1: 2 (13%) participants
  Maximal improvement from baseline in GSR of −2: 4 (25%) participants
  Maximal improvement from baseline in GSR of −3: 0 (0%) participants
  Maximal improvement from baseline in GSR of −4: 0 (0%) participants
  Maximal improvement from baseline in GSR of −5: 2 (13%) participants
  Maximal improvement from baseline in GSR of −6: 2 (13%) participants
  Maximal improvement from baseline in GSR of −7: 0 (0%) participants
  Maximal improvement in self-reported symptom activity of 0: 1 participants
  Maximal improvement in self-reported symptom activity of 1: 0 participants
  Maximal improvement in self-reported symptom activity of 2: 1 participants
  Maximal improvement in self-reported symptom activity of 4: 0 participants
  Maximal improvement in self-reported symptom activity of −1: 2 participants
  Maximal improvement in self-reported symptom activity of −2: 3 participants
  Maximal improvement in self-reported symptom activity of −3: 2 participants
  Maximal improvement in self-reported symptom activity of −4: 2 participants
  Maximal improvement in self-reported symptom activity of −5: 0 participants
  Maximal improvement in self-reported symptom activity of −6: 1 participants
  Maximal improvement in self-reported symptom activity of −7: 2 participants
  Maximal improvement in self-reported symptom activity of −8: 0 participants
Cohort 3 400 mg QD
  Maximal improvement from baseline in GSR of 0: 3 (14%) participants
  Maximal improvement from baseline in GSR of 1: 1 (5%) participants
  Maximal improvement from baseline in GSR of 3: 0 (0%) participants
  Maximal improvement from baseline in GSR of −1: 4 (19%) participants
  Maximal improvement from baseline in GSR of −2: 4 (19%) participants
  Maximal improvement from baseline in GSR of −3: 1 (5%) participants
  Maximal improvement from baseline in GSR of −4: 3 (14%) participants
  Maximal improvement from baseline in GSR of −5: 0 (0%) participants
  Maximal improvement from baseline in GSR of −6: 0 (0%) participants
  Maximal improvement from baseline in GSR of −7: 2 (10%) participants

From patent publication US20250255867A1 (Kadmon Corporation, LLC, priority 2022, published 2025)
